Source: patent US20240156097A1, “AGROCHEMICAL ADJUVANTS FROM STACHYBOTRYS CHARTARUM” (Croda International Plc, priority 2021, published 2024)

Assays:
[1] = test system: Botrytis cinerea (ATCC 90479); assay: Adjuvancy: growth inhibition of Botrytis cinerea on agar with fungicide and/or adjuvant (colony diameter); format: cell-based; conditions: for Fold Change in Growth Inhibition: 48 h, 22° C.; for inherent fungicidal activity on their own: adjuvant alone, any of the concentrations tested; for fungicidal activity compared to dimethomorph, prothioconazole, mancozeb, metalaxyl and pyrimethanil alone: in words, adjuvant plus fungicide
[2] = test system: African green monkey Vero kidney cells (ATCC CCL-81); assay: Cytotoxicity against Vero cells (alamarBlue); format: cell-based; conditions: highest concentration tested (128 μg/mL); 24 hours
Procedure: The cytotoxicity of the phenylspirodrimanes and stachybocin A was assessed in vitro against African green monkey Vero kidney cells (ATCC CCL-81). Cells were cultured in 15 mL of Eagle's minimal essential medium (Sigma) supplemented with 10% (v/v) fetal bovine serum (VWR), […] and 0.1 mg/mL streptomycin in T75 cm^2 cell culture flasks. Cells were incubated for 24 hours at 37° C. in a humidified atmosphere of 5% CO2. Culture medium was refreshed every 2-3 days and cells were not allowed to exceed 80% confluency.
At 80% confluency the cells were counted, diluted and plated into 96 well flat bottom cell culture plates (Corning) at a cell density of 10,000 cells per well in 90 μL of growth medium. The plates were incubated at 37° C. in a humidified atmosphere of 5% CO2 for 24 hours to allow cells to adhere to the plate before treatment. […]
The plates were incubated at 37° C. in a humidified atmosphere of 5% C02 for 24 hours after which alamarBlue (Invitrogen) was added to each well at 10% of the culture volume. Fluorescence was monitored using a Thermo Scientific Varioskan Flash plate reader at 560/12 excitation, 590 nm emission both at time zero and 4 hrs after alamarBlue addition. After subtracting the time zero emission 590 nm measurement from the final reading, the inferred percentage of cell viability relative to the vehicle control wells was calculated.

[3] = adjuvant 12.5 μg/mL + pyraclostrobin 0.1 μg/mL vs pyraclostrobin alone
[4] = adjuvant 12.5 μg/mL + pyraclostrobin 0.2 μg/mL vs pyraclostrobin alone
[5] = adjuvant 12.5 μg/mL + pyraclostrobin 0.4 μg/mL vs pyraclostrobin alone
[6] = adjuvant 12.5 μg/mL + pyraclostrobin 0.8 μg/mL vs pyraclostrobin alone
[7] = adjuvant 12.5 μg/mL + tebuconazole 0.05 μg/mL vs tebuconazole alone
[8] = adjuvant 12.5 μg/mL + tebuconazole 0.10 μg/mL vs tebuconazole alone
[9] = adjuvant 12.5 μg/mL + tebuconazole 0.19 μg/mL vs tebuconazole alone
[10] = adjuvant 12.5 μg/mL + tebuconazole 0.38 μg/mL vs tebuconazole alone
[11] = adjuvant 25 μg/mL + pyraclostrobin 0.1 μg/mL vs pyraclostrobin alone
[12] = adjuvant 25 μg/mL + pyraclostrobin 0.2 μg/mL vs pyraclostrobin alone
[13] = adjuvant 25 μg/mL + pyraclostrobin 0.4 μg/mL vs pyraclostrobin alone
[14] = adjuvant 25 μg/mL + pyraclostrobin 0.8 μg/mL vs pyraclostrobin alone
[15] = adjuvant 25 μg/mL + tebuconazole 0.05 μg/mL vs tebuconazole alone
[16] = adjuvant 25 μg/mL + tebuconazole 0.10 μg/mL vs tebuconazole alone
[17] = adjuvant 25 μg/mL + tebuconazole 0.19 μg/mL vs tebuconazole alone
[18] = adjuvant 25 μg/mL + tebuconazole 0.38 μg/mL vs tebuconazole alone
[19] = adjuvant 50 μg/mL + pyraclostrobin 0.1 μg/mL vs pyraclostrobin alone
[20] = adjuvant 50 μg/mL + pyraclostrobin 0.2 μg/mL vs pyraclostrobin alone
[21] = adjuvant 50 μg/mL + pyraclostrobin 0.4 μg/mL vs pyraclostrobin alone
[22] = adjuvant 50 μg/mL + pyraclostrobin 0.8 μg/mL vs pyraclostrobin alone
[23] = adjuvant 50 μg/mL + tebuconazole 0.05 μg/mL vs tebuconazole alone
[24] = adjuvant 50 μg/mL + tebuconazole 0.10 μg/mL vs tebuconazole alone
[25] = adjuvant 50 μg/mL + tebuconazole 0.19 μg/mL vs tebuconazole alone
[26] = adjuvant 50 μg/mL + tebuconazole 0.38 μg/mL vs tebuconazole alone

Row | SMILES | Fold Change in Growth Inhibition [1, 3] | Fold Change in Growth Inhibition [1, 4] | Fold Change in Growth Inhibition [1, 5] | Fold Change in Growth Inhibition [1, 6] | Fold Change in Growth Inhibition [1, 7] | Fold Change in Growth Inhibition [1, 8] | Fold Change in Growth Inhibition [1, 9] | Fold Change in Growth Inhibition [1, 10] | Fold Change in Growth Inhibition [1, 11] | Fold Change in Growth Inhibition [1, 12] | Fold Change in Growth Inhibition [1, 13] | Fold Change in Growth Inhibition [1, 14] | Fold Change in Growth Inhibition [1, 15] | Fold Change in Growth Inhibition [1, 16] | Fold Change in Growth Inhibition [1, 17] | Fold Change in Growth Inhibition [1, 18] | Fold Change in Growth Inhibition [1, 19] | Fold Change in Growth Inhibition [1, 20] | Fold Change in Growth Inhibition [1, 21] | Fold Change in Growth Inhibition [1, 22] | other results
1 | CC1CCC2C(C)(C)C(O)CCC2(C)C12Cc1c(O)cc3c(c1O2)CN(C(Cc1ccccc1)C(=O)O)C3=O (stereo not drawn) [Phe (Ib), phenylspirodrimane (Ib)] | 3.59 | 1.11 | 1.47 | 1.55 | 22.22 | 2.83 | 2.17 | 1.03 | 4.25 | 1.56 | 1.08 | 1.19 | 7.94 | 1.67 | 1.83 | 1.00 | 17.87 | 1.67 | 1.62 | 1.57 | Fold Change in Growth Inhibition [1, 23]: 14.29; Fold Change in Growth Inhibition [1, 24]: 4.33; Fold Change in Growth Inhibition [1, 25]: 2.36; Fold Change in Growth Inhibition [1, 26]: 1.00; inherent fungicidal activity on their own [1]: did not demonstrate any inherent fungicidal activity; fungicidal activity compared to dimethomorph, prothioconazole, mancozeb, metalaxyl and pyrimethanil alone [1]: showed increased fungicidal activity; cytotoxicity against Vero cells [2]: did not exhibit any cytotoxicity
2 | CC1CCC2C(C)(C)C(O)CCC2(C)C12Cc1c(O)cc3c(c1O2)CN(CCCCC(C(=O)O)N1Cc2c(cc(O)c4c2OC2(C4)C(C)CCC4C(C)(C)C(O)CCC42C)C1=O)C3=O (stereo not drawn) [Sta A (IIa), stachybocin A] | 2.92 | 1.00 | 1.00 | 1.00 | 12.70 | 2.83 | 2.36 | 1.00 | 2.92 | 1.00 | 1.00 | 1.00 | 14.29 | 2.67 | 1.81 | 1.00 | 2.25 | 1.00 | 1.47 | 1.08 | Fold Change in Growth Inhibition [1, 23]: 12.70; Fold Change in Growth Inhibition [1, 24]: 2.17; Fold Change in Growth Inhibition [1, 25]: 1.36; Fold Change in Growth Inhibition [1, 26]: 1.00; inherent fungicidal activity on their own [1]: did not demonstrate any inherent fungicidal activity; fungicidal activity compared to dimethomorph, prothioconazole, mancozeb, metalaxyl and pyrimethanil alone [1]: showed increased fungicidal activity; cytotoxicity against Vero cells [2]: did not exhibit any cytotoxicity
